The target in the experiment is T1, human RORgT (Homo sapiens, UniProt P51449).
T1 construct: expressed in transfected cells
T1 sequence (P51449 267-516): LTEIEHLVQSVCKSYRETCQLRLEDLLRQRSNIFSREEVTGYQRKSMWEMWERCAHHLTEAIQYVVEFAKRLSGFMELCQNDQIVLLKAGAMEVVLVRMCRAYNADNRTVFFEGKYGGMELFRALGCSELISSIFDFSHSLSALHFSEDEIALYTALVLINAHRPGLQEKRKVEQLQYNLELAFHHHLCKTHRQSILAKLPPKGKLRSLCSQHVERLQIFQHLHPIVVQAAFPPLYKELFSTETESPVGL
The experiment is described as follows: RORgT Gal4 Luciferase Reporter Gene Assay. Conditions: engineered Jurkat cells overexpressing RORgT (LBD or full length) fused with Gal4 Luc reporter; 18 hours at 37° C.; luminescence. In kind it is cell-based. In short, it runs like this: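 Jurkat cells expressing Gal4 Luc with either RORgT LBD (aa267-516) or full-length human RORgT, 10,000 cells/well, treated with compound (40 µM to 0.67 nM final, 3-fold dilutions) for 18 h at 37° C. Steady-Glo luminescence read; inhibition of constitutive activity as % signal-window reduction relative to a control compound.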
On the technique in general: In a reporter assay the amount or activity of a reporter protein is the signal.
For `CS(=O)(=O)CC(=O)N1CC[C@@]2(S(=O)(=O)c3ccccc3)c3ccc(OCc4c(Cl)cccc4Cl)cc3CC[C@@H]12` [Example 69, 1-[(3aR,9bR)-9b-(benzenesulfonyl)-7-[(2,6-dichlorophenyl)methoxy]-1H,2H,3H,3aH,4H,5H,9bH-benzo[e]indol-3-yl]-2-methanesulfonylethan-1-one], the EC50 – broadly, the concentration giving half of the maximal effect – is 17 nM. In turn, `NC(=O)CN1CC[C@@]2(S(=O)(=O)c3ccccc3)c3ccc(OCc4c(Cl)cccc4Cl)cc3CC[C@@H]12` [Example 70, 2-[(3aR,9bR)-9b-(benzenesulfonyl)-7-[(2,6-dichlorophenyl)methoxy]-1H,2H,3H,3aH,4H,5H,9bH-benzo[e]indol-3-yl]acetamide] displayed an EC50 of 153 nM. Regarding `O=C1CCCN1CCN1CC[C@@]2(S(=O)(=O)c3ccccc3)c3ccc(OCc4c(Cl)cccc4Cl)cc3CC[C@@H]12` [Example 71, 1-{2-[(3aR,9bR)-9b-(benzenesulfonyl)-7-[(2,6-dichlorophenyl)methoxy]-1H,2H,3H,3aH,4H,5H,9bH-benzo[e]indol-3-yl]ethyl}pyrrolidin-2-one], the EC50 amounted to 667 nM. In turn, `CC(C)(O)C(=O)N1CC[C@@]2(S(=O)(=O)c3ccccc3)c3ccc(OCc4c(Cl)cccc4Cl)cc3CC[C@@H]12` [Example 72, 1-[(3aR,9bR)-9b-(benzenesulfonyl)-7-[(2,6-dichlorophenyl)methoxy]-1H,2H,3H,3aH,4H,5H,9bH-benzo[e]indol-3-yl]-2-hydroxy-2-methylpropan-1-one] had an EC50 of 199 nM. For `CCOC(=O)CNC(=O)N1CC[C@@]2(S(=O)(=O)c3ccccc3)c3ccc(OCc4c(Cl)cccc4Cl)cc3CC[C@@H]12` [Example 73, ethyl 2-{[(3aR,9bR)-9b-(benzenesulfonyl)-7-[(2,6-dichlorophenyl)methoxy]-1H,2H,3H,3aH,4H,5H,9bH-benzo[e]indole-3-carbonyl]amino}acetate] the value was 314 nM; for `O=C(CN1CCS(=O)(=O)CC1)N1CC[C@@]2(S(=O)(=O)c3ccccc3)c3ccc(OCc4c(Cl)cccc4Cl)cc3CC[C@@H]12` [Example 74, 4-{2-[(3aR,9bR)-9b-(benzenesulfonyl)-7-[(2,6-dichlorophenyl)methoxy]-1H,2H,3H,3aH,4H,5H,9bH-benzo[e]indol-3-yl]-2-oxoethyl}-1λ^6-thiomorpholine-1,1-dione], 14 nM; for `CS(=O)(=O)N1CC[C@@]2(S(=O)(=O)c3ccccc3)c3ccc(OCc4c(Cl)cccc4Cl)cc3CC[C@@H]12` [Example 75, (3aR,9bR)-9b-(benzenesulfonyl)-7-[(2,6-dichlorophenyl)methoxy]-3-methanesulfonyl-1H,2H,3H,3aH,4H,5H,9bH-benzo[e]indole], 212 nM.

As to `O=C1CCCN1CCC(=O)N1CC[C@@]2(S(=O)(=O)c3ccccc3)c3ccc(OCc4c(Cl)cccc4Cl)cc3CC[C@@H]12` [Example 76, 1-{3-[(3aR,9bR)-9b-(benzenesulfonyl)-7-[(2,6-dichlorophenyl)methoxy]-1H,2H,3H,3aH,4H,5H,9bH-benzo[e]indol-3-yl]-3-oxopropyl}pyrrolidin-2-one], the EC50 was 957 nM. The value for `CN1CC(C(=O)N2CC[C@@]3(S(=O)(=O)c4ccccc4)c4ccc(OCc5c(Cl)cccc5Cl)cc4CC[C@@H]23)CC1=O` (stereo partly drawn) [Example 77, 4-[(3aR,9bR)-9b-(benzenesulfonyl)-7-[(2,6-dichlorophenyl)methoxy]-1H,2H,3H,3aH,4H,5H,9bH-benzo[e]indole-3-carbonyl]-1-methylpyrrolidin-2-one] was 19 nM; that for `NC(=O)N1CCC(C(=O)N2CC[C@@]3(S(=O)(=O)c4ccccc4)c4ccc(OCc5ccccc5)cc4CC[C@@H]23)CC1` [Example 78, 4-[(3aR,9bR)-9b-(benzenesulfonyl)-7-(benzyloxy)-1H,2H,3H,3aH,4H,5H,9bH-benzo[e]indole-3-carbonyl]piperidine-1-carboxamide] was 140 nM. `O=C1CCCN1CC(=O)N1CC[C@@]2(S(=O)(=O)c3ccccc3)c3ccc(OCc4c(Cl)cccc4Cl)cc3CC[C@@H]12` [Example 79, 1-{2-[(3aR,9bR)-9b-(benzenesulfonyl)-7-[(2,6-dichlorophenyl)methoxy]-1H,2H,3H,3aH,4H,5H,9bH-benzo[e]indol-3-yl]-2-oxoethyl}pyrrolidin-2-one] registered an EC50 of 210 nM. This EC50 is about 1.5-fold higher than that of the compound before.

`O=C(N1CCOCC1)N1CC[C@@]2(S(=O)(=O)c3ccccc3)c3ccc(OCc4c(Cl)cccc4Cl)cc3CC[C@@H]12` [Example 80, 4-[(3aR,9bR)-9b-(benzenesulfonyl)-7-[(2,6-dichlorophenyl)methoxy]-1H,2H,3H,3aH,4H,5H,9bH-benzo[e]indole-3-carbonyl]morpholine] had an EC50 of 102 nM. Compared with the last compound, the EC50 is about 2.1-fold lower. For `O=C(O)C12CCC(C(=O)N3CC[C@@]4(S(=O)(=O)c5ccccc5)c5ccc(OCc6c(Cl)cccc6Cl)cc5CC[C@@H]34)(CC1)CC2` [Example 81, 4-[(3aR,9bR)-9b-(benzenesulfonyl)-7-[(2,6-dichlorophenyl)methoxy]-1H,2H,3H,3aH,4H,5H,9bH-benzo[e]indole-3-carbonyl]bicyclo[2.2.2]octane-1-carboxylic acid] the value was 25 nM; for `CS(=O)(=O)C1CCN(C(=O)N2CC[C@@]3(S(=O)(=O)c4ccccc4)c4ccc(OCc5c(Cl)cccc5Cl)cc4CC[C@@H]23)CC1` [Example 82, 1-[(3aR,9bR)-9b-(benzenesulfonyl)-7-[(2,6-dichlorophenyl)methoxy]-1H,2H,3H,3aH,4H,5H,9bH-benzo[e]indole-3-carbonyl]-4-methanesulfonylpiperidine], 97 nM.

For the compound `CC1(O)CN(C(=O)N2CC[C@@]3(S(=O)(=O)c4ccccc4)c4ccc(OCc5c(Cl)cccc5Cl)cc4CC[C@@H]23)C1` [Example 83, 1-[(3aR,9bR)-9b-(benzenesulfonyl)-7-[(2,6-dichlorophenyl)methoxy]-1H,2H,3H,3aH,4H,5H,9bH-benzo[e]indole-3-carbonyl]-3-methylazetidin-3-ol], the EC50 stood at 353 nM.

The compound `O=C(N1CCS(=O)(=O)CC1)N1CC[C@@]2(S(=O)(=O)c3ccccc3)c3ccc(OCc4c(Cl)cccc4Cl)cc3CC[C@@H]12` [Example 84, 4-[(3aR,9bR)-9b-(benzenesulfonyl)-7-[(2,6-dichlorophenyl)methoxy]-1H,2H,3H,3aH,4H,5H,9bH-benzo[e]indole-3-carbonyl]-1λ^6-thiomorpholine-1,1-dione] returned an EC50 of 15 nM. For `CS(=O)(=O)N1CC(NC(=O)N2CC[C@@]3(S(=O)(=O)c4ccccc4)c4ccc(OCc5c(Cl)cccc5Cl)cc4CC[C@@H]23)C1` [Example 85, (3aR,9bR)-9b-(benzenesulfonyl)-7-[(2,6-dichlorophenyl)methoxy]-N-(1-methanesulfonylazetidin-3-yl)-1H,2H,3H,3aH,4H,5H,9bH-benzo[e]indole-3-carboxamide] the value was 18 nM; for `CC(C)(O)CCNC(=O)N1CC[C@@]2(S(=O)(=O)c3ccccc3)c3ccc(OCc4c(Cl)cccc4Cl)cc3CC[C@@H]12` [Example 86, (3aR,9bR)-9b-(benzenesulfonyl)-7-[(2,6-dichlorophenyl)methoxy]-N-(3-hydroxy-3-methylbutyl)-1H,2H,3H,3aH,4H,5H,9bH-benzo[e]indole-3-carboxamide], 159 nM; for `O=C(Nc1ccncc1)N1CC[C@@]2(S(=O)(=O)c3ccccc3)c3ccc(OCc4c(Cl)cccc4Cl)cc3CC[C@@H]12` [Example 87, (3aR,9bR)-9b-(benzenesulfonyl)-7-[(2,6-dichlorophenyl)methoxy]-N-(pyridin-4-yl)-1H,2H,3H,3aH,4H,5H,9bH-benzo[e]indole-3-carboxamide], 39 nM.
